Source: patent US11873295B2, “Allosteric chromenone inhibitors of phosphoinositide 3-kinase (PI3K) for the treatment of disease” (Petra Pharma Corporation, priority 2021, dated 2024)

Tests used:
[1] = molecular target: T1, human full length PIK3KA Wild-type (p110α/p85α complex) (Homo sapiens, UniProt P42336); test: PI3K-alpha kinase (PIK3CA) biochemical activity, wild-type, ADP-Glo; conditions: PI3K-α (PIK3CA) biochemical
T1 construct: Recombinant, catalytically active human full length PIK3KA Wild-type and H1047R mutant were purchased as 1:1 complex; 6xHis (N); purchased EMD Millipore Sigma 14-602M
From the text: (§1) PI3K-Alpha Kinase (PIK3CA) Activity, Wild-Type and H1047R Mutant and Determining IC50 Values for Inhibitors
(§2) Recombinant, catalytically active human full length PIK3KA Wild-type and H1047R mutant were purchased as 1:1 complex of N-terminal 6× his tagged p110α (catalytic) and untagged p85α (regulatory subunit) from EMD Millipore Sigma (cat. no. 14-602M and 14-792M, respectively). PIP2diC8 (Avanti Polar Lipids Inc., cat. no. 850185) or Soy PI (Avanti Polar Lipids Inc., cat. No. 840044P) was used as lipid substrate. PIP2diC8 or PI lyophilized powder was dissolved in milliQ water to a concentration of 1 mM just before use. 10 mM stock compounds in DMSO were serially diluted 1:3 to generate a 10-point curve and plated using an acoustic liquid handler system (Echo 550 series instrument, Labcyte). A 10× intermediate compound plate (200 uM starting compound concentration and 10% DMSO) was prepared before starting the reaction. A typical reaction mixture (50 uL) comprised 40 mM HEPES buffer, pH 7.4, 25 mM MgCl2, 0.01% v/v triton-X-100, 1% v/v DMSO, 20 mM NaCl, 1-5 nM WT or H1047R PI3K protein, 20 uM ATP, and 50 uM PIP2diC8 or Soy PI. 1% DMSO buffer alone without test compound was employed as MAX control (full activity in the absence of any inhibitor), and no enzyme control was used to determine the level of background Adenosine 5′-diphosphate (ADP) (MIN control). First, Wild-type (WT) and H1047R mutant protein in kinase buffer with all components except ATP were incubated with or without compound at 27° C. for 1 h. After the pre-incubation, the reaction was initiated by the addition of 20 uL of 50 uM ATP (20 uM final concentration). The reaction was allowed to proceed until about 10% conversion of ATP (2 uM ADP) at 27° C. After that time, 5 uL of reaction was mixed with 5 uL of ADP-Kinase Glo Reagent (ADP-Glo Kinase assay kit, Promega cat. no. V9102) supplemented with MgCl2 10 mM to stop the reaction and deplete the remaining ATP for 40 min at room temperature. Then, 10 uL of Kinase Detection Reagent (ADP-Glo Kinase assay kit, Promega cat. no. V9102) was added to simultaneously convert ADP to ATP and allow the newly synthesized ATP to be measured using a luciferase/luciferin reaction. After 30 min at room temperature the light generated was measured using a luminometer (EnVision plate reader, Perkin Elmer). Process data through Genedata-Screener tool. Relative IC50 values are determined using luminescence units by calculating percent inhibition with respect to on-plate “MIN” and “MAX” controls. Data was analyzed using a 4-parameter nonlinear logistic equation (four-parameter logistic concentration-response curve): Y=bot+[(top−bot)/1+(x/IC50)slope] where Y=% inhibition, X=concentration yielding y % inhibition, Bottom=minimum value of y attained by curve, Top=maximum value of y attained by curve and Slope=steepness of curve at IC50. % Inh=[(median Max−x/median Max−median Min)]·100 IC50: concentration of compound that reduces a given response (ligand binding, enzyme response) by 50%. IC50 relative: concentration giving half the compound's maximum response.
(§3) For IC50 values shown in Table A, “A” means IC50<0.5 μM; “B” means IC50 ranging between 0.5 μM and 1.0 μM; “C” means IC50 ranging between 1 μM and 5 μM; “D” means IC50 ranging between 5 μM and 10 μM; “E” means IC50>10 μM.

[2] = molecular target: T2, human full length PIK3KA H1047R mutant (p110α/p85α complex) (Homo sapiens, UniProt P42336, H1047R); test: PI3K-alpha kinase (PIK3CA) biochemical activity, H1047R mutant, ADP-Glo; conditions: PI3K-α (PIK3CA) biochemical, H1047R mutant
T2 construct: Recombinant, catalytically active human full length PIK3KA Wild-type and H1047R mutant were purchased as 1:1 complex; 6xHis (N); purchased EMD Millipore Sigma 14-792M
From the text: as §1, §2, §3

[3] = PIP2diC8 lipid substrate (footnote 1)

T2 sequence (P42336 whole entry H1047R): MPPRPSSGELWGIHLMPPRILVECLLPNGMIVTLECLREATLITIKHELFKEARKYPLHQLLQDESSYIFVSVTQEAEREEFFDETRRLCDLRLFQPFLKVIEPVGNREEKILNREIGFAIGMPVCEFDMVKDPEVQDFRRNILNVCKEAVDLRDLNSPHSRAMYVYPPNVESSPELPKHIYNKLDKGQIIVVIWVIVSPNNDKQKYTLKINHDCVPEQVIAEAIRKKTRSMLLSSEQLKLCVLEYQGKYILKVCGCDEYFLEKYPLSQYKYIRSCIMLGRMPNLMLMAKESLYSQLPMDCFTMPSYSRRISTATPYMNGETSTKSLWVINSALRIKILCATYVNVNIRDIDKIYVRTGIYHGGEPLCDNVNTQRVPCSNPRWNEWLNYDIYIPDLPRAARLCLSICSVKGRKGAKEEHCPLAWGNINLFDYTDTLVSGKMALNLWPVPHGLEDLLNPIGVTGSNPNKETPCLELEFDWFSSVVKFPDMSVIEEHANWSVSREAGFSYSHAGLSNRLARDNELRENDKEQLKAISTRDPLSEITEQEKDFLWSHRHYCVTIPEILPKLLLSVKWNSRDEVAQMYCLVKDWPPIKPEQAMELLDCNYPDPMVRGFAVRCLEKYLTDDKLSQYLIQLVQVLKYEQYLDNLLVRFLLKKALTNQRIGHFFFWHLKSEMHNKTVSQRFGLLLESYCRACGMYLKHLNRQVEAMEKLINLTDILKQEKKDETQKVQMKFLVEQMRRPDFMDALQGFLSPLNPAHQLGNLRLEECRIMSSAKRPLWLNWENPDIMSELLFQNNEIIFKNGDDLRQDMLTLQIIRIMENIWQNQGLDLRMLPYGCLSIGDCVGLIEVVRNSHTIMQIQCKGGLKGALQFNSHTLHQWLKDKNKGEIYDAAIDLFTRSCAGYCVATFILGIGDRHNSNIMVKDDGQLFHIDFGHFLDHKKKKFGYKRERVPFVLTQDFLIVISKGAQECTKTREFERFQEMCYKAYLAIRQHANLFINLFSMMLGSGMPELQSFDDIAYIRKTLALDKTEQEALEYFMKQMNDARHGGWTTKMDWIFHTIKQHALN
T2 sequence (P27986 whole entry partner): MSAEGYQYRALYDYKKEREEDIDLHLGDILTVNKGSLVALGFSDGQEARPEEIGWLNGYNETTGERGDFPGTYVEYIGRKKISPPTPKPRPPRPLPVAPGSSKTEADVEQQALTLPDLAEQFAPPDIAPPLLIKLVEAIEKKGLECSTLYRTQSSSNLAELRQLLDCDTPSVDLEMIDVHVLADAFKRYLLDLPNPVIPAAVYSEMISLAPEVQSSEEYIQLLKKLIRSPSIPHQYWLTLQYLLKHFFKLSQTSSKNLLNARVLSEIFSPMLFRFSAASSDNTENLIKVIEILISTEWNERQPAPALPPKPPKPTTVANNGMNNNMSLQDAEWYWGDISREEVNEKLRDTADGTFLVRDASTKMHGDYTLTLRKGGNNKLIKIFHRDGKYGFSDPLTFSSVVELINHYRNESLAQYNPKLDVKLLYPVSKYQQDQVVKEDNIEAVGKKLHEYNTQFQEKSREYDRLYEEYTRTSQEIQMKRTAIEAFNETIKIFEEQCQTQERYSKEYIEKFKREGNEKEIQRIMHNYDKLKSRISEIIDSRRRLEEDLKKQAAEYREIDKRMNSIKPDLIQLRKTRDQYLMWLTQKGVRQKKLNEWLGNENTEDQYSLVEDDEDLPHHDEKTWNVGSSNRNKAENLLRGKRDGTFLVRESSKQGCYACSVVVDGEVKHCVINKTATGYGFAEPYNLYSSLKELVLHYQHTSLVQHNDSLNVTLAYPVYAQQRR

## C[C@@H](Nc1ccccc1C(=O)O)c1cc(F)cc2c(=O)cc(-c3ccccc3)oc12 [Example 24, 2-[[(1R)-1-(6-Fluoro-4-oxo-2-phenyl-chromen-8-yl)ethyl]amino]benzoic acid]
[1]; Soy PI lipid substrate
  IC50: 1000 to 5000 nM
[2]; Soy PI lipid substrate
  IC50: < 500 nM

## Cc1cc([C@@H](C)Nc2ccccc2C(=O)O)c2oc(-c3cccc(C#N)c3)cc(=O)c2c1 [Example 16, 2-[[(1R)-1-[2-(3-Cyanophenyl)-6-methyl-4-oxo-chromen-8-yl]ethyl]amino]benzoic acid]
[1]; [3]
  IC50: 500 to 1000 nM
[2]; [3]
  IC50: < 500 nM

## CC(Nc1ccccc1C(=O)O)c1cc(C(F)(F)F)cc2c(=O)cc(-c3ccccc3)oc12 (single isomer, unassigned; isomer 1) [Example 86, 2-[1-[4-Oxo-2-phenyl-6-(trifluoromethyl)-chromen-8-yl]ethylamino]benzoic acid, Isomer 1]
[1]; Soy PI lipid substrate
  IC50: 5000 to 10000 nM
[2]; Soy PI lipid substrate
  IC50: > 10000 nM

## Cc1cc([C@@H](C)Nc2ccccc2C(=O)O)c2oc(-c3ccccc3F)cc(=O)c2c1 [Example 11, 2-[[(1R)-1-[2-(2-Fluorophenyl)-6-methyl-4-oxo-chromen-8-yl]ethyl]amino]benzoic acid]
[1]; Soy PI lipid substrate
  IC50: 1000 to 5000 nM
[2]; Soy PI lipid substrate
  IC50: < 500 nM

## Cc1cc([C@@H](C)Nc2ccccc2C(=O)O)c2oc(-c3ccc(C#N)cc3)cc(=O)c2c1 [Example 17, 2-[[(1R)-1-[2-(4-Cyanophenyl)-6-methyl-4-oxo-chromen-8-yl]ethyl]amino]benzoic acid]
[1]; [3]
  IC50: < 500 nM
[2]; [3]
  IC50: < 500 nM

## Cc1cc(C(C)Nc2ccccc2C(=O)O)c2oc(-c3ccc(C4(C#N)CC4)cc3)cc(=O)c2c1 (centres unmarked) [Example 7, 2-[1-[2-[4-(1-Cyanocyclopropyl)-phenyl]-6-methyl-4-oxo-chromen-8-yl]ethylamino]benzoic acid]
[1]; [3]
  IC50: 500 to 1000 nM
[2]; [3]
  IC50: < 500 nM

## Cc1cc([C@@H](C)Nc2ccccc2C(=O)O)c2oc(-c3cccc(C(F)F)c3)cc(=O)c2c1 [Example 71, 2-[[(1R)-1-[2-[3-(Difluoromethyl)phenyl]-6-methyl-4-oxo-chromen-8-yl]ethyl]amino]benzoic acid]
[1]; Soy PI lipid substrate
  IC50: 1000 to 5000 nM
[2]; Soy PI lipid substrate
  IC50: < 500 nM

## Cc1cc(C(C)Nc2cccc(F)c2C(=O)O)c2oc(-c3ccccc3F)cc(=O)c2c1 (centres unmarked) [Example 97, 2-Fluoro-6-[1-[2-(2-fluorophenyl)-6-methyl-4-oxo-chromen-8-yl]ethylamino]benzoic acid 2,2,2-trifluoroacetic acid]
[1]; Soy PI lipid substrate
  IC50: 1000 to 5000 nM
[2]; Soy PI lipid substrate
  IC50: < 500 nM

## Cc1cc([C@@H](C)Nc2c(Cl)ccc(F)c2C(=O)O)c2oc(-c3ccccc3)c(C)c(=O)c2c1 [Example 65, 3-Chloro-2-[[(1R)-1-(3,6-dimethyl-4-oxo-2-phenyl-chromen-8-yl)ethyl]amino]-6-fluoro-benzoic acid]
[1]; Soy PI lipid substrate
  IC50: > 10000 nM
[2]; Soy PI lipid substrate
  IC50: > 10000 nM

## Cc1cc([C@@H](C)Nc2ccc(C)nc2C(=O)O)c2oc(-c3ccccc3)cc(=O)c2c1 [Example 46, 6-Methyl-3-[[(1R)-1-(6-methyl-4-oxo-2-phenyl-chromen-8-yl)ethyl]amino]-pyridine-2-carboxylic acid]
[1]; Soy PI lipid substrate
  IC50: 5000 to 10000 nM
[2]; Soy PI lipid substrate
  IC50: < 500 nM

## Cc1cc(C(C)Nc2ccccc2C(=O)O)c2oc(-c3ccccc3)c(C#N)c(=O)c2c1 (single isomer, unassigned; isomer 1) [Example 61, 2-[1-(3-Cyano-6-methyl-4-oxo-2-phenyl-chromen-8-yl)ethylamino]benzoic acid, Isomer 1]
[1]; Soy PI lipid substrate
  IC50: > 10000 nM
[2]; Soy PI lipid substrate
  IC50: > 10000 nM

## Cc1cc(C(C)Nc2cccc(F)c2C(=O)O)c2oc(-c3ccccc3F)cc(=O)c2c1 (single isomer, unassigned; isomer 1) [Example 107, 2-Fluoro-6-[1-[2-(2-fluorophenyl)-6-methyl-4-oxo-chromen-8-yl]ethylamino]benzoic acid, Isomer 1]
[1]; Soy PI lipid substrate
  IC50: 1000 to 5000 nM
[2]; Soy PI lipid substrate
  IC50: < 500 nM

## Cc1cc(C(C)Nc2ccccc2C(=O)O)c2oc(-c3ccc(S(C)(=O)=O)cc3)cc(=O)c2c1 (centres unmarked) [Example 9, 2-[1-[6-Methyl-2-(4-methylsulfonylphenyl)-4-oxo-chromen-8-yl]ethylamino]benzoic acid 2,2,2-trifluoroacetic acid]
[1]; Soy PI lipid substrate
  IC50: > 10000 nM
[2]; Soy PI lipid substrate
  IC50: < 500 nM

## C[C@@H](Nc1ccccc1C(=O)O)c1cc(F)cc2c(=O)cc(-c3cccc(C(F)F)c3)oc12 [Example 80, 2-[[(1R)-1-[2-[3-(Difluoromethyl)phenyl]-6-fluoro-4-oxo-chromen-8-yl]ethyl]amino]benzoic acid 2,2,2-trifluoroacetic acid]
[1]; Soy PI lipid substrate
  IC50: 5000 to 10000 nM
[2]; Soy PI lipid substrate
  IC50: < 500 nM

## C[C@@H](Nc1ccccc1C(=O)O)c1cc(C(F)(F)F)cc2c(=O)cc(-c3ccc(F)cc3F)oc12 [Example 90, 2-[[(1R)-1-[2-(2,4-Difluorophenyl)-4-oxo-6-(trifluoromethyl)-chromen-8-yl]ethyl]amino]benzoic acid]
[1]; Soy PI lipid substrate
  IC50: 5000 to 10000 nM
[2]; Soy PI lipid substrate
  IC50: < 500 nM

## Cc1c(-c2ccccc2)oc2c([C@@H](C)Nc3ccccc3C(=O)O)cc(F)cc2c1=O [Example 72, 2-[[(1R)-1-(6-Fluoro-3-methyl-4-oxo-2-phenyl-chromen-8-yl)ethyl]amino]benzoic acid 2,2,2-trifluoroacetic acid]
[1]; Soy PI lipid substrate
  IC50: 1000 to 5000 nM
[2]; Soy PI lipid substrate
  IC50: 1000 to 5000 nM

## Cc1cc(C(C)Nc2cccc(F)c2C(=O)O)c2oc(-c3ccccc3F)c(C)c(=O)c2c1 (single isomer, unassigned; isomer 1) [Example 103, 2-Fluoro-6-[1-[2-(2-fluorophenyl)-3,6-dimethyl-4-oxo-chromen-8-yl]ethylamino]benzoic acid, Isomer 1]
[1]; Soy PI lipid substrate
  IC50: < 500 nM
[2]; Soy PI lipid substrate
  IC50: < 500 nM

## COc1ccc(NC(C)c2cc(C)cc3c(=O)c(C)c(-c4ccccc4)oc23)c(C(=O)O)n1 (centres unmarked) [Example 89, 3-[1-(3,6-Dimethyl-4-oxo-2-phenyl-chromen-8-yl)ethylamino]-6-methoxy-pyridine-2-carboxylic acid 2,2,2-trifluoroacetic acid]
[1]; Soy PI lipid substrate
  IC50: 1000 to 5000 nM
[2]; Soy PI lipid substrate
  IC50: < 500 nM

## Cc1cc([C@@H](C)Nc2ccc(Br)cc2C(=O)O)c2oc(-c3ccccc3)c(C)c(=O)c2c1 [Example 77, 5-Bromo-2-[[(1R)-1-(3,6-dimethyl-4-oxo-2-phenyl-chromen-8-yl)ethyl]amino]benzoic acid]
[1]; Soy PI lipid substrate
  IC50: 1000 to 5000 nM
[2]; Soy PI lipid substrate
  IC50: < 500 nM

## Cc1cc(C(C)Nc2ccccc2C(=O)O)c2oc(-c3cccc(C(C)(C)C#N)c3)cc(=O)c2c1 (centres unmarked) [Example 3, 2-[1-[2-[3-(1-Cyano-1-methyl-ethyl)phenyl]-6-methyl-4-oxo-chromen-8-yl]ethylamino]benzoic acid 2,2,2-trifluoroacetic acid]
[1]; Soy PI lipid substrate
  IC50: 5000 to 10000 nM
[2]; Soy PI lipid substrate
  IC50: < 500 nM

## Cc1cc([C@@H](C)Nc2ccc(Cl)nc2C(=O)O)c2oc(-c3ccccc3)cc(=O)c2c1 [Example 2, 6-Chloro-3-[[(1R)-1-(6-methyl-4-oxo-2-phenyl-chromen-8-yl)ethyl]amino]pyridine-2-carboxylic acid]
[1]; Soy PI lipid substrate
  IC50: < 500 nM
[2]; Soy PI lipid substrate
  IC50: < 500 nM

## Cc1cc([C@@H](C)Nc2ccccc2C(=O)O)c2oc(-c3ccc(C#N)cc3F)cc(=O)c2c1 [Example 51, 2-[[(1R)-1-[2-(4-Cyano-2-fluoro-phenyl)-6-methyl-4-oxo-chromen-8-yl]ethyl]amino]benzoic acid 2,2,2-trifluoroacetic acid]
[1]; Soy PI lipid substrate
  IC50: 1000 to 5000 nM
[2]; Soy PI lipid substrate
  IC50: < 500 nM
